The structures appear in SMILES notation.

The data set has as its system animals receiving CPR. Kind of data set: Animal studies with administration of an anesthetic gas during CPR. Type of data set: in vivo. Conditions: compared with other inhaled anesthetics. The text has this:
In one embodiment, the administered anesthetic includes sevoflurane. Other volatile anesthetics that may be administered include: halothane, enflurane, and desflurane isoflurane, xenon, helium and the like. […] These anesthetics may provide protective effects when administered before or during CPR and help stabilize the brain, heart, or body to help the heart, brain, and/or body to stay fresh. It is believed that some anesthetic agents provide these effects by attenuating the mitochondrial membrane permeability, or manipulating and protecting the mitochondrial membrane pores. It is believed that during ischemia, permeability pores in the mitochondria cell membrane open up causing the mitochondria to swell. In such a condition, the mitochondria are destroyed or damaged when blood flow is reestablished. The anesthetic may help protects against such damage, especially if the anesthetic is delivered or delivery is initiated early in reestablishing blood flow. Some volatile anesthetics like Xenon provide anesthesia by non-competitive inhibit N-methyl-D-aspartate receptors. Due to the fact that reperfusion injury occurs very early during the resuscitation efforts (within 2-3 minutes from the imitation of CPR) it is preferable that the anesthetic is delivered or delivery is initiated within the first 5 minutes of CPR efforts. […]

For `FCOC(C(F)(F)F)C(F)(F)F` [Sevoflurane, sevoflurane], the cardiodepressant effects entry is “less of cardiodepressant effects” and the “protection from reperfusion injury” value was “significant protection from reperfusion injury”.

These data come from patent US20140363391A1, “SYSTEM AND METHOD FOR ADMINISTERING POLOXAMERS AND ANESTHETICS WHILE PERFORMING CPR AND MINIMIZING REPERFUSION INJURY” (priority 2013, published 2014).
